Data as given in patent publication US20150377876A1, “DIAGNOSTIC TOOLS TO PREDICT ONSET OF PREECLAMPSIA” (UNIVERSITY OF IOWA RESEARCH FOUNDATION, priority 2013, published 2015).
Like-named read-outs stand apart in the source and are kept apart here.

Legend:
[1] = system: abdominal aorta; settings: for Maximum Response, relaxation / Maximum Response, contraction / EC50: abdominal aorta; for Maximum Response, relaxation: after sub-maximal contraction with PGF2a; for EC50: read-out: EC50, contractile response
Procedure: (§1) Aortic Vascular Reactivity: Abdominal aortic rings were assessed for vascular reactivity as previously described (30). Briefly, mice were euthanized by overdose of pentobarbital (50 mg, i.p.), and the abdominal aorta was quickly removed and placed in Kreb's buffer containing (in mmol/L): 118.3 NaCl, 4.7 KCl, 1.2 MgSO4, 1.2 KH2PO4, 25 NaHCO3, 2.5 CaCl2 and 11 glucose. Vascular rings (4-5 mm in length) were suspended in oxygenated Kreb's buffer (95% O2/5% CO2) in organ baths at 37° C. and connected to a force transducer via steel hooks. Resting tension was adjusted to 0.5 grams over 45 minutes.
(§2) Statistics: Data were analyzed by ANOVA with repeated measures as appropriate. Post-hoc analyses were performed using Bonferroni multiple-comparisons procedures. EC50 and maximum response calculations were performed by fitting individual dose-response data sets to a four-parameter logistic function (Hillslope method); y=min+(max−min)/(1+(x/EC50)̂Hill slope). […] All analytical comparisons were performed using SigmaStat/SigmaPlot (Systat). All data are presented as mean±sem.

[2] = system: abdominal aorta; assay: tissue or blood; settings: Mus musculus
Procedure: as §1, §2

[3] = system: C57B1/6J mice; assay: Vasopressin infusion during pregnancy, preeclampsia-like phenotypes; format: in vivo
Procedure: Animal Studies: Female C57B1/6J mice were obtained from Jackson Laboratories between 8-12 weeks of age. Osmotic minipumps infusing vasopressin (240 ng/hr) or saline vehicle were inserted into the subcutaneous space via incision between the scapulae. Following three days of recovery, females were mated with male C57B1/6J mice. Presence of a vaginal plug indicated gestational day 0.5. Blood pressure was tracked before mating and throughout gestation by tail-cuff plethysmography. On gestational day 18, females were sacrificed for necropsy. Pup weight was recorded. Dam kidney sections were generated and imaged by electron microscopy by the University of Iowa Department of Pathology. All studies were approved by the University of Iowa Animal Care and Use Committee (ACURF#1211239).

[4] = in blood; cited from earlier work
[5] = system: 2°-branch mesenteric artery; assay: tissue or blood; parameters: species or system mice; settings: for Maximum Response, contraction / EC50: mesenteric artery; for EC50: read-out: EC50, contractile response
Procedure: Mesenteric Artery Vascular Reactivity: Secondary branches of mesenteric artery were dissected and placed in chilled oxygenated (21% O2, 5% CO2, and 74% N2) Kreb's buffer. A segment (˜1 mm long) of artery was transferred to a vessel chamber (DMT), cannulated with glass micropipettes and secured with silk ligatures. The artery was slowly pressurized to 40 mmHg without flow. After 30 min equilibration, vessel viability was tested by constriction response to 100 mM KCl. Vascular responses to PE (10-9-10-5 mol/L), AVP (10-12-10-7 mol/L), and ET-1 (10-11-10-8 mol/L) were then assessed. The artery was then superfused with calcium-free Krebs buffer containing 10-5 mol/L sodium nitroprusside and 2 mmol/L EGTA to maximally dilate the vessel. Internal and external diameters were measured at 75 mm Hg. Wall thickness, media/lumen ratio and cross sectional area (CSA) were calculated as previously described by Neves, et al. (58).
Statistics: Data were analyzed by ANOVA with repeated measures as appropriate. Post-hoc analyses were performed using Bonferroni multiple-comparisons procedures. EC50 and maximum response calculations were performed by fitting individual dose-response data sets to a four-parameter logistic function (Hillslope method); y=min+(max−min)/(1+(x/EC50)̂Hill slope). All mRNA fold changes were calculated using the Livak method (51). All analytical comparisons were performed using SigmaStat/SigmaPlot (Systat). All data are presented as mean±sem.

[6] = system: sRA mice; assay: Radiotelemetric blood pressure, heart rate and physical activity during chronic subcutaneous infusion; format: in vivo; settings: for radiotelemetric blood pressure: sRA mice, 22 ng/h sc infusion (conivaptan 18 days, one female; tolvaptan 10 days, n=4 female)
Procedure: Blood pressure (telemetry). Radiotelemetric blood pressures were recorded from the carotid artery essentially as previously reported (27). Briefly, a telemeter probe (DSI, model TA11PA-C10) was inserted into the common carotid artery under ketamine-xylazine anesthesia. After >2 days of recovery, blood pressure, heart rate, and spontaneous physical activity were recorded for 30 s every 5 min using the Dataquest program (DSI). After baseline recordings, mice were chronically delivered conivaptan and tolvaptan via osmotic minipump that was implanted through an interscapular incision into the subcutaneous space of the back under isoflurane anesthesia.

[7] = system: sRA mice; assay: Blood pressure by tail-cuff during chronic subcutaneous infusion; format: in vivo; settings: 22 ng/h sc by osmotic minipump, 10 days
Procedure: Here we first examined blood pressure in sRA mice using a Visitech Systems BP-2000 tail-cuff blood pressure monitoring system, as previously described (79). Briefly, animals were acclimated to warmed restraint boxes daily for 1 wk. Once acclimated, 30 measurements of systolic blood pressure were averaged from each animal daily for 2 wk to assess baseline blood pressure. Conivaptan (Vaprisol, YM 087, 22 ng/h sc, Baxter Healthcare) or tolvaptan (OPC-41061, 22 ng/h sc, Sigma Aldrich) was delivered to distinct subsets of mice by osmotic minipump (model 1004, Alzet). After osmotic minipump implantation, pressures were recorded daily for 10 days to assess drug effects.

[8] = system: sRA and control littermate mice; assay: Blood chemistry following tolvaptan infusion (iSTAT CHEM8+); format: in vivo; settings: for Anion gap / BUN / Chloride / Glucose / Hematocrit / Ionized calcium / Potassium / Sodium / Total CO2 / Creatinine: tolvaptan 22 ng/h, 10 days sc; for Creatinine: lower detection limit 0.20 mg/dl
Procedure: Blood and urine analyses: Plasma was obtained by collecting whole blood by submandibular bleed into lithium heparin coated tubes, then centrifuged at 5,000×g for 5 minutes, and the supernatant transferred to a fresh tube and frozen at −80° C. until analysis. Urine was collected using Nalgene single-mouse metabolism cages as previously described (20). Copeptin was measured using an ELISA kit (USCN Life Sciences), according to the manufacturer's instructions. Blood chemistries and urine creatinine were determined using a handheld iSTAT clinical chemistry analyzer (Abbott), with CHEM8+ cartridges. Urine protein was determined using a bicinchoninic acid assay kit (Thermo Fisher/Pierce), according to the manufacturer's instructions.

[9] = female sRA mouse, 22 ng/h sc, 18 days

CC(=O)OCC[N+](C)(C)C [Acetylcholine, acetylcholine]
Maximum Response, relaxation ([1]; male control mice): 78.9 ± 3.3% | Maximum Response, relaxation ([1]; male sRA mice): 70.4 ± 8.9% | EC50 ([2]; read-out: EC50, relaxation response, abdominal aorta, male control mice, after sub-maximal contraction with PGF2a): 130 ± 35 nM | EC50 ([2]; read-out: EC50, relaxation response, abdominal aorta, male sRA mice, after sub-maximal contraction with PGF2a): 879 ± 298 nM

NC(=O)CC[C@@H]1NC(=O)[C@H](Cc2ccccc2)NC(=O)[C@H](Cc2ccc(O)cc2)NC(=O)[C@@H](N)CSSC[C@@H](C(=O)N2CCC[C@H]2C(=O)N[C@@H](CCCN=C(N)N)C(=O)NCC(N)=O)NC(=O)[C@H](CC(N)=O)NC1=O [Arginine vasopressin, arginine vasopressin]
renal pathology (electron microscopy) ([3]; dam kidney, gestational day 18, 240 ng/hr sc minipump): pathognomic glomerular endotheliosis | rate of pregnancy (fecundity) ([3]; female C57B1/6J mice, 240 ng/hr sc minipump): significantly reduced the rate of pregnancy | fetal growth ([3]; gestational day 18 fetuses, 240 ng/hr sc minipump): substantial fetal growth restriction | proteinuria ([3]; pregnant C57B1/6J mice, 240 ng/hr sc minipump): apparent proteinuria | blood pressure during pregnancy ([3]; pregnant C57B1/6J mice, 240 ng/hr sc minipump, tail-cuff): robust increase in blood pressure | biological half-life [4]: 5-20 minutes | Maximum Response, contraction ([1]; male control littermate mice): 0.29 ± 0.03 g | Maximum Response, contraction ([1]; male sRA mice): 0.12 ± 0.01 g | EC50 ([1]; male control littermate mice): 2.19 ± 0.19 nM | EC50 ([1]; male sRA mice): 3.72 ± 0.73 nM | Maximum Response, contraction ([5]; male control littermate mice): 52.5 ± 3.2% | EC50 ([5]; male control littermate mice): 0.57 ± 0.15 nM | EC50 ([5]; male sRA mice): 15.9 ± 13.5 nM

CNC[C@H](O)c1cccc(O)c1 [Phenylephrine, phenylephrine]
Maximum Response, contraction ([1]; male control littermate mice): 1.18 ± 0.05 g | Maximum Response, contraction ([1]; male sRA mice): 1.02 ± 0.10 g | EC50 ([2]; read-out: EC50, contractile response, abdominal aorta, male control littermate mice): 1900 nM | EC50 ([2]; read-out: EC50, contractile response, abdominal aorta, male sRA mice): 2430 nM | EC50 ([5]; Mus musculus, male control littermate mice): 1460 nM | EC50 ([5]; Mus musculus, male sRA mice): 560 ± 80 nM | Maximum Response, contraction ([5]; male control littermate mice): 67.3 ± 3% | Maximum Response, contraction ([5]; male sRA mice): 64.5 ± 4.1%

CC[C@H](C)[C@H](NC(=O)[C@H](Cc1ccc(O)cc1)NC(=O)[C@@H](NC(=O)[C@H](CCCNC(=N)N)NC(=O)[C@@H](N)CC(=O)O)C(C)C)C(=O)N[C@@H](Cc1c[nH]cn1)C(=O)N1CCC[C@H]1C(=O)N[C@@H](Cc1ccccc1)C(=O)O [Angiotensin II, angiotensin II]
Maximum Response, contraction ([1]; male control littermate mice): 0.32 ± 0.03 g | Maximum Response, contraction ([1]; male sRA mice): 0.38 ± 0.03 g

Cc1nc2c([nH]1)-c1ccccc1N(C(=O)c1ccc(NC(=O)c3ccccc3-c3ccccc3)cc1)CC2 [conivaptan]
heart rate (telemetry) [6, 9]: slight reduction in heart rate | spontaneous physical activity [6, 9]: remained normal | radiotelemetric blood pressure [6]: gradual but substantial reduction in blood pressure | systolic blood pressure (tail-cuff), effect on hypertension [7]: complete normalization of the hypertension

CCCCC[C@H](O)/C=C/[C@@H]1[C@@H](C/C=C\CCCC(=O)O)[C@@H](O)C[C@H]1O [Prostaglandin F2α, prostaglandin F2a]
Maximum Response, contraction ([1]; male control littermate mice): 1.59 ± 0.06 g | Maximum Response, contraction ([1]; male sRA mice): 1.50 ± 0.10 g | EC50 ([1]; male control littermate mice): 4600 nM | EC50 ([1]; male sRA mice): 3600 nM

[Cl-].[K+] [potassium chloride]
constrictor response to potassium chloride ([1]; aortic rings from sRA mice vs control, 100 mmol/l KCl): normal constrictor responses | contractile response to potassium chloride ([5]; mesenteric artery branches of sRA mice vs control, 100 mM KCl): significant reduction in contractile response

CC[C@H](C)[C@H](NC(=O)[C@H](CC(=O)O)NC(=O)[C@H](CC(C)C)NC(=O)[C@H](Cc1c[nH]cn1)NC(=O)[C@@H]1CSSC[C@H](N)C(=O)N[C@@H](CO)C(=O)N[C@H]2CSSC[C@H](NC(=O)[C@H](CCC(=O)O)NC(=O)[C@H](CCCCN)NC(=O)[C@H](CC(=O)O)NC(=O)[C@H](CCSC)NC(=O)[C@H](CC(C)C)NC(=O)[C@H](CO)NC(=O)[C@H](CO)NC2=O)C(=O)N[C@@H](C(C)C)C(=O)N[C@@H](Cc2ccc(O)cc2)C(=O)N[C@@H](Cc2ccccc2)C(=O)N1)C(=O)N[C@H](C(=O)N[C@@H](Cc1c[nH]c2ccccc12)C(=O)O)[C@@H](C)CC [Endothelin-1, endothelin-1]
Maximum Response, contraction ([1]; male control littermate mice): 0.45 ± 0.04 g | Maximum Response, contraction ([1]; male sRA mice): 0.55 ± 0.09 g | EC50 ([1]; male control littermate mice): 3.4 ± 0.33 nM | EC50 ([1]; male sRA mice): 5.19 ± 0.93 nM | Maximum Response, contraction ([5]; male control littermate mice): 67.8 ± 4.3% | EC50 ([5]; male control littermate mice): 1.68 ± 0.43 nM | Maximum Response, contraction ([5]; male sRA mice): 58 ± 4.6% | EC50 ([5]; male sRA mice): 0.45 ± 0.17 nM

Cc1ccccc1C(=O)Nc1ccc(C(=O)N2CCC[C@@H](O)c3cc(Cl)ccc32)c(C)c1 [Tolvaptan, tolvaptan]
radiotelemetric blood pressure [6]: blood pressure reduction was confirmed | Anion gap ([8]; female control mice): 17.0 ± 1.5 mM | BUN ([8]; female control mice): 18.4 ± 0.9 mg/dL | Chloride ([8]; female control mice): 112.4 ± 0.5 mM | Glucose ([8]; female control mice): 190 ± 13 mg/dL | Hematocrit ([8]; female control mice): 45.4 ± 0.7 % RBC | Ionized calcium ([8]; female control mice): 1.19 ± 0.05 mM | Potassium ([8]; female control mice): 6.4 ± 0.1 mM | Sodium ([8]; female control mice): 146.2 ± 0.7 mM | Total CO2 ([8]; female control mice): 24.0 ± 1.1 mM | Creatinine ([8]; female control mice): 0.24 ± 0.02 mg/dL | Anion gap ([8]; female sRA mice): 18.5 ± 0.7 mM | BUN ([8]; female sRA mice): 24.5 ± 1.7 mg/dL | Chloride ([8]; female sRA mice): 105.2 ± 1.6 mM | Glucose ([8]; female sRA mice): 136 ± 15 mg/dL | Hematocrit ([8]; female sRA mice): 49.8 ± 1.1 % RBC | Ionized calcium ([8]; female sRA mice): 1.18 ± 0.03 mM | Potassium ([8]; female sRA mice): 5.3 ± 0.3 mM | Sodium ([8]; female sRA mice): 146.3 ± 0.7 mM | Total CO2 ([8]; female sRA mice): 28.8 ± 1.7 mM | Creatinine ([8]; female sRA mice): 0.33 ± 0.04 mg/dL | Anion gap ([8]; male control mice): 16.3 ± 0.5 mM | BUN ([8]; male control mice): 21.5 ± 0.9 mg/dL | Chloride ([8]; male control mice): 115.5 ± 0.3 mM | Glucose ([8]; male control mice): 182 ± 7 mg/dL | Hematocrit ([8]; male control mice): 43.8 ± 1.1 % RBC | Ionized calcium ([8]; male control mice): 1.18 ± 0.04 mM | Potassium ([8]; male control mice): 6.6 ± 0.5 mM | Sodium ([8]; male control mice): 148.3 ± 1.3 mM | Total CO2 ([8]; male control mice): 24.0 ± 0.8 mM | Creatinine ([8]; male control mice): 0.25 ± 0.03 mg/dL | Anion gap ([8]; male sRA mice): 21.0 ± 2.4 mM | BUN ([8]; male sRA mice): 27.3 ± 2.1 mg/dL | Chloride ([8]; male sRA mice): 107.0 ± 2.7 mM | Glucose ([8]; male sRA mice): 181 ± 28 mg/dL | Hematocrit ([8]; male sRA mice): 52.0 ± 1.1 % RBC | Ionized calcium ([8]; male sRA mice): 1.18 ± 0.03 mM | Potassium ([8]; male sRA mice): 5.4 ± 0.1 mM | Sodium ([8]; male sRA mice): 147.5 ± 1.9 mM | Total CO2 ([8]; male sRA mice): 26.0 ± 3.4 mM | Creatinine ([8]; male sRA mice): 0.30 ± 0.04 mg/dL | effect on hyponatremia and hypocalcemia ([8]; sRA mice, chronic tolvaptan 22 ng/h sc, 10 days): corrected both of these imbalances | systolic blood pressure (tail-cuff), effect on hypertension [7]: nearly identical normalization of blood pressure
